# Assay results: ChEMBL document CHEMBL3232727, “Evaluation of bisindole as potent β-glucuronidase inhibitors: synthesis and in silico based studies” (Bioorg Med Chem Lett, 2014)
# Molecular target: T1, Beta-glucuronidase (Bos taurus) (UniProt A3KMY8)
# T1 sequence (whole entry): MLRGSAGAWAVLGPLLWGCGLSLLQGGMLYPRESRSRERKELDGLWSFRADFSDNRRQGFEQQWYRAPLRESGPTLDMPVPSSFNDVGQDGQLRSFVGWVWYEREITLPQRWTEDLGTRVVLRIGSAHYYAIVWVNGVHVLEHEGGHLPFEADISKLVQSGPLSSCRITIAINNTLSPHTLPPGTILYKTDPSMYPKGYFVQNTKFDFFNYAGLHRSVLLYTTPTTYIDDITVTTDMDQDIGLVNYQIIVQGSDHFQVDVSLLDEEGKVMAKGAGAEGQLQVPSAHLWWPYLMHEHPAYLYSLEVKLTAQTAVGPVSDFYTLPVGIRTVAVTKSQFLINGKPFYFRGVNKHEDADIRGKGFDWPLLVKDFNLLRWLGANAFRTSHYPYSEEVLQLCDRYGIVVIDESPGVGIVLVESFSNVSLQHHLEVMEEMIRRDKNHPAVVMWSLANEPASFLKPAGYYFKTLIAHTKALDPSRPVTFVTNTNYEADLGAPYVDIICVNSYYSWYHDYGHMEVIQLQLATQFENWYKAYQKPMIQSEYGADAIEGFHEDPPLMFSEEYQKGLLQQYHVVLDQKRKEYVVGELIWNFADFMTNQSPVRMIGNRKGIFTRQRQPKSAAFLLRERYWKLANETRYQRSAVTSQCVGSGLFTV
# Assay: (§1) Inhibition of bovine liver beta-glucuronidase using p-nitrophenyl-beta-D-glucuronide as substrate after 30 mins by spectrophotometry
# Parameters: concentration or dose not given beside the values
row,inhibition,SMILES
1,< 50%,N#Cc1ccc2[nH]cc(C(c3ccc(Cl)c(Cl)c3)c3c[nH]c4ccc(C#N)cc34)c2c1
2,< 50%,COc1ccccc1C(c1c[nH]c2ccc(Br)cc12)c1c[nH]c2ccc(Br)cc12
3,< 50%,CSc1ccc(C(c2c[nH]c3ccc(C#N)cc23)c2c[nH]c3ccc(C#N)cc23)cc1
4,< 50%,COc1cc(C(c2c[nH]c3ccc(Br)cc23)c2c[nH]c3ccc(Br)cc23)ccc1O
5,< 50%,O=[N+]([O-])c1ccc(C(c2c[nH]c3ccc(Br)cc23)c2c[nH]c3ccc(Br)cc23)cc1
6,< 50%,O=[N+]([O-])c1ccccc1C(c1c[nH]c2ccc(Br)cc12)c1c[nH]c2ccc(Br)cc12
7,< 50%,CSc1ccc(C(c2c[nH]c3ccc(Br)cc23)c2c[nH]c3ccc(Br)cc23)cc1

# Molecular target: T2, Beta-glucuronidase (Bos taurus, UniProt A3KMY8)
# T2 sequence (A3KMY8 whole entry): T1 sequence (whole entry)
# Assay: as §1
row,SMILES,IC50
1,N#Cc1ccc2[nH]cc(C(c3ccccc3[N+](=O)[O-])c3c[nH]c4ccc(C#N)cc34)c2c1,19.9 µM
2,Clc1cccc(C(c2c[nH]c3ccc(Br)cc23)c2c[nH]c3ccc(Br)cc23)c1,22.3 µM
3,Clc1ccc(C(c2c[nH]c3ccc(Br)cc23)c2c[nH]c3ccc(Br)cc23)cc1Cl,21.5 µM

# Continued, values first:
row,IC50,SMILES
1,1.62 µM,Oc1ccc(C(c2c[nH]c3ccc(Br)cc23)c2c[nH]c3ccc(Br)cc23)c(O)c1
2,18.4 µM,Fc1ccccc1C(c1c[nH]c2ccc(Br)cc12)c1c[nH]c2ccc(Br)cc12
3,20.9 µM,Cc1ccccc1C(c1c[nH]c2ccc(Br)cc12)c1c[nH]c2ccc(Br)cc12
